# Data published in patent publication US11312723B2, “Pyranopyrazole and pyrazolopyridine immunomodulators for treatment of autoimmune diseases” (The Rockefeller University, priority 2017, dated 2022).
# Target: Human FXIIa (Homo sapiens (Human), UniProt P00748)
# Experiment: Factor XIIa (FXIIa) inhibitory activity, chromogenic substrate (Pefachrome XIIa) cleavage
# Type: biochemical
# Conditions: 10 min pre-incubation, Pefachrome XIIa 400 μM
# Experimental: Factor XIIa (FXIIa) Inhibitory Activity:
# In a 96-well clear bottom plate, 80 μl of assay buffer was added to each well. Assay buffer consists of 0.5× Hank's Balanced Salt Solution (Invitrogen), buffered with 25 mM HEPES pH 7.4 (Invitrogen) and 0.5× Tris-buffered saline with Tween-20 0.05% (Santa Cruz Biotechnology). Test compounds were first dissolved in DMSO (Sigma) and then 4 μl were added to test wells containing assay buffer. Serial dilutions using an automated multi-channel pipette were used to generate a concentration range of approximately 1-100 μM. Human FXIIa (Enzyme Research Labs) was diluted in assay buffer to a final concentration of 12.5 nM. 80 μl of this enzyme solution was added to the assay wells. The enzyme/compound mixtures were incubated for 10 minutes at room temperature. Chromogenic substrate (Pefachrome XIIa; Enzyme Research Labs) was added to assay wells at a final concentration of 400 μM. The assay plate was spun for 1 minute at 1500 g and then read at 37° C. in a SpectraMax M2 plate reader (λ=405 nm). Activity was quantified as the rate of change in absorbance, which corresponds to the rate of substrate cleavage. IC50 values were determined as the concentration of inhibitor that produced 50% of the rate of change of control wells without any inhibitor. For compounds with activity <1 μM, the assay was repeated with a lower concentration range, typically from 10-1000 nM.
# Sequence of Human FXIIa (P00748 373-615): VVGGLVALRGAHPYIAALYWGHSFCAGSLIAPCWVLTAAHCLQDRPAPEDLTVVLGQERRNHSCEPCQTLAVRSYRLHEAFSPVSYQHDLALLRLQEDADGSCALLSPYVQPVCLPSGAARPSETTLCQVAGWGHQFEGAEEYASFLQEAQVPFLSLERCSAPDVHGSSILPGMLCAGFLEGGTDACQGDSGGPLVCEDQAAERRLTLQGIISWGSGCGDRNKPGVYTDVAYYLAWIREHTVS
# Sequence of Human FXIIa (P00748 20-372 partner): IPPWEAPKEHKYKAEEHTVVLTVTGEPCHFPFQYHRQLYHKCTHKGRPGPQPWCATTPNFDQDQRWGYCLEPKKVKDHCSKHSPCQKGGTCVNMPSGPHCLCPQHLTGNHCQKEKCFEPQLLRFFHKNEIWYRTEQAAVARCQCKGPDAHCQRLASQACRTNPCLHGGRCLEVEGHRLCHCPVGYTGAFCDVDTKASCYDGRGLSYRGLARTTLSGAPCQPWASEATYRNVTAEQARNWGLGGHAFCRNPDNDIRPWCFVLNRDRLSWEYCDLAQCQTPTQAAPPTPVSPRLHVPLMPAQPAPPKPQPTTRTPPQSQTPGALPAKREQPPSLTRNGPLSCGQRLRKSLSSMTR
row,IC50 [µM],SMILES
1,32,"Cc1cc(F)cc2c1NCCC2C(=O)n1nc(N)c2c1CN(S(C)(=O)=O)CC2 (stereo not shown) [Example 52, (3-amino-6-(methylsulfonyl)-4,5,6,7-tetrahydropyrazolo[3,4-c]pyridin-1-yl)(6-fluoro-8-methyl-1,2,3,4-tetrahydroquinolin-4-yl)methanone]"
2,> 65,"CCc1cc(C)c2c(c1)C(C(=O)n1nc(N)c3c1CN(S(C)(=O)=O)CC3)CCN2 (stereo not shown) [Example 56, (3-amino-6-(methylsulfonyl)-4,5,6,7-tetrahydropyrazolo[3,4-c]pyridin-1-yl)(6-ethyl-8-methyl-1,2,3,4-tetrahydroquinolin-4-yl)methanone]"
3,60,"CS(=O)(=O)N1CCc2c(N)nn(C(=O)C3CCNc4c(Cl)cccc43)c2C1 (stereo not shown) [Example 58, (3-amino-6-(methylsulfonyl)-4,5,6,7-tetrahydropyrazolo[3,4-c]pyridin-1-yl)(8-chloro-1,2,3,4-tetrahydroquinolin-4-yl)methanone]"
4,> 65,"COc1cccc2c1NCCC2C(=O)n1nc(N)c2c1CN(S(C)(=O)=O)CC2 (stereo not shown) [Example 62, (3-amino-6-(methylsulfonyl)-4,5,6,7-tetrahydropyrazolo[3,4-c]pyridin-1-yl)(8-methoxy-1,2,3,4-tetrahydroquinolin-4-yl)methanone]"
5,0.09,"CCc1cccc2c1NCCC2C(=O)n1nc2c(c1N)CCN(S(C)(=O)=O)C2 (stereo not shown) [Example 65, (3-amino-6-(methylsulfonyl)-4,5,6,7-tetrahydropyrazolo[3,4-c]pyridin-2-yl)(8-ethyl-1,2,3,4-tetrahydroquinolin-4-yl)methanone]"
6,> 100,"CCc1cccc2c1NCCC2C(=O)n1nc(N)c2c1CN(S(C)(=O)=O)CC2 (stereo not shown) [Example 66, (3-amino-6-(methylsulfonyl)-4,5,6,7-tetrahydropyrazolo[3,4-c]pyridin-1-yl)(8-ethyl-1,2,3,4-tetrahydroquinolin-4-yl)methanone]"
7,> 90,"CS(=O)(=O)N1CCc2c(N)nn(C(=O)C3CCNc4c3cccc4C(F)(F)F)c2C1 (stereo not shown) [Example 68, (3-amino-6-(methylsulfonyl)-4,5,6,7-tetrahydropyrazolo[3,4-c]pyridin-1-yl)(8-(trifluoromethyl)-1,2,3,4-tetrahydroquinolin-4-yl)methanone]"
8,5,"Nc1nn(C(=O)C2CCNc3c(Cl)cccc32)c2c1CCNC2 (stereo not shown) [Example 71, (3-amino-4,5,6,7-tetrahydropyrazolo[3,4-c]pyridin-1-yl)(8-chloro-1,2,3,4-tetrahydroquinolin-4-yl)methanone]"
9,25,"Nc1nn(C(=O)C2CCNc3ccc(F)cc32)c2c1COCC2 (stereo not shown) [Example 75, (3-amino-6,7-dihydropyrano[4,3-c]pyrazol-1(4H)-yl)(6-fluoro-1,2,3,4-tetrahydroquinolin-4-yl)methanone]"
10,1.25,"CN1CCc2nn(C(=O)C3CCNc4ccccc43)c(N)c2C1 (stereo not shown) [Example 86, (3-amino-5-methyl-4,5,6,7-tetrahydro-pyrazolo[4,3-c]pyridin-2-yl)(1,2,3,4-tetrahydro-quinolin-4-yl)methanone]"
11,80,"COC(=O)N1CCc2c(c(N)nn2C(=O)C2CCNc3ccccc32)C1 (stereo not shown) [Example 88, methyl 3-amino-1-(1,2,3,4-tetrahydro-quinoline-4-carbonyl)-6,7-dihydro-1H-pyrazolo[4,3-c]pyridine-5(4H)-carboxylate]"
12,1.2,"Cc1cc2c(C(=O)n3nc(N)c4c3CN(S(C)(=O)=O)CC4)cccc2[nH]1 [Example 102, (3-amino-6-(methylsulfonyl)-4,5,6,7-tetrahydro-pyrazolo[3,4-c]pyridin-1-yl)(2-methyl-1H-indol-4-yl)methanone]"
13,30,"COC(=O)N1CCc2c(N)nn(C(=O)C3CCNc4ccccc43)c2C1 (stereo not shown) [Example 115, methyl 3-amino-1-(1,2,3,4-tetrahydro-quinoline-4-carbonyl)-4,5-dihydro-1H-pyrazolo[3,4-c]pyridine-6(7H)-carboxylate]"
